Reference: ChEMBL document CHEMBL1201862, “PubChem BioAssay data set” (2004)
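Five concentrations, 48 hours, 96-well plates. GI50 = concentration required for 50% inhibition of growth.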 Activity calls are given as the source filed them. Cut-off read from the data, not from the text of the source: active = GI50 up to about 1.1 µM and inactive = higher.

Legend:
Test in all cases: growth of human tumour cells (NCI), 48 h
[1] = tested on: RPMI-8226
[2] = tested on: MDA-N
[3] = tested on: HOP-92
[4] = tested on: UO-31
[5] = tested on: SK-MEL-28
[6] = tested on: IGROV-1
[7] = tested on: PC-3
[8] = tested on: MOLT-4
[9] = tested on: OVCAR-4
[10] = tested on: BT-549
[11] = tested on: SNB-19
[12] = tested on: NCI/ADR-RES
[13] = tested on: SK-OV-3
[14] = tested on: A498
[15] = tested on: SF-539
[16] = tested on: A549
[17] = tested on: HL-60
[18] = tested on: 786-0
[19] = tested on: COLO 205
[20] = tested on: DU-145

Measured: GI50

CN(CCCNC(=O)c1cn(C)c2c1Cc1ccccc1-2)CCCNC(=O)c1cn(C)c2c1Cc1ccccc1-2
inactive: [1] 21.3 µM | [2] 3.58 µM | [3] 2.13 µM | [4] 9.16 µM | [5] 10.8 µM | [6] 6.24 µM | [7] 10.8 µM | [8] 3.35 µM | [9] 12.8 µM | [10] 17.1 µM | [11] 11.4 µM | [12] 12.5 µM | [13] 16.5 µM | [14] 11.9 µM | [15] 13.8 µM | [16] 15.8 µM | [17] 13.3 µM | [18] 4.83 µM | [19] 1.9 µM

O=c1[nH]c(=S)c2cc3c(=S)[nH]c(=O)n(CCO)c3nc2n1CCO
inactive: [1] > 100 µM | [2] > 100 µM | [3] > 100 µM | [4] > 100 µM | [5] > 100 µM | [6] > 100 µM | [7] > 100 µM | [8] > 100 µM | [9] > 100 µM | [10] > 100 µM | [11] > 100 µM | [12] > 100 µM | [13] > 100 µM | [14] > 100 µM | [15] > 100 µM | [16] > 100 µM | [18] > 100 µM | [19] > 100 µM

CCC(=O)O[C@H]1CC[C@H]2[C@@H]3CCC4=C/C(=N/OC(=O)c5cccc6c(=O)c7ccccc7[nH]c56)CC[C@]4(C)[C@H]3CC[C@]12C
inactive: [1] 19.9 µM | [2] 35 µM | [3] 30.8 µM | [4] 26.4 µM | [5] 28.7 µM | [6] 21.8 µM | [7] 26.9 µM | [8] 17.9 µM | [9] 38.2 µM | [10] 25.3 µM | [11] 51.4 µM | [12] 31.7 µM | [13] > 100 µM | [14] 27.1 µM | [15] 20.6 µM | [16] 43.5 µM | [18] 18.4 µM | [19] 32.3 µM

CCCc1n[nH]c(=O)n1N1C(=O)C=CC1=O
inactive: [2] > 100 µM | [20] > 100 µM | [6] > 100 µM | [7] > 100 µM | [8] > 100 µM | [9] > 100 µM | [10] 30.5 µM | [13] > 100 µM | [14] > 100 µM | [15] > 100 µM | [16] > 100 µM | [18] > 100 µM | [19] > 100 µM
